Results on 9 compounds are retold here after BindingDB's records for doi:10.1016/S0960-894X(01)80892-1 (1993).

By Ki is commonly meant a dissociation constant, usually derived from enzyme kinetics or from competition with a known ligand.

The assay can be described thus: Binding affinity against sigma receptor in guinea pig brain preparation was estimated using [3H]3-PPP as radioligand.
As to `C1=C(c2ccccn2)CCN(CCCCc2ccncc2)C1` [1'-(4-Pyridin-4-yl-butyl)-1',2',3',6'-tetrahydro-[2,4']bipyridinyl], the Ki is 44.5 nM.

Turning to `C1=C(c2c[nH]c3ccccc23)CCN(CCCCc2ccncc2)C1` [3-[1-(4-Pyridin-4-yl-butyl)-1,2,3,6-tetrahydro-pyridin-4-yl]-1H-indole], the Ki is 10.3 nM.

In the case of `C1=C(c2ccc3ccccc3c2)CCN(CCCCc2ccncc2)C1` [4-[4-(4-Naphthalen-2-yl-3,6-dihydro-2H-pyridin-1-yl)-butyl]-pyridine], the Ki is 3.07 nM.

As for `C1=C(c2ccccc2)CCN(CCCCc2ccncc2)C1` [4-[4-(4-Phenyl-3,6-dihydro-2H-pyridin-1-yl)-butyl]-pyridine], the Ki was 2.72 nM.

`C1=C(c2cccs2)CCN(CCCCc2ccncc2)C1` [4-[4-(4-Thiophen-2-yl-3,6-dihydro-2H-pyridin-1-yl)-butyl]-pyridine]: the Ki was 2.13 nM.

As for `Cc1ccc(C2=CCN(CCCCc3ccncc3)CC2)cc1` [4-[4-(4-p-Tolyl-3,6-dihydro-2H-pyridin-1-yl)-butyl]-pyridine], the Ki was 5.86 nM.

In the case of `Clc1ccc(C2=CCN(CCCCc3ccncc3)CC2)cc1` [4-{4-[4-(4-Chloro-phenyl)-3,6-dihydro-2H-pyridin-1-yl]-butyl}-pyridine], the inhibition constant (Ki) was 1.04 nM.

On to `Fc1ccc(C2=CCN(CCCCc3ccncc3)CC2)cc1` [4-{4-[4-(4-Fluoro-phenyl)-3,6-dihydro-2H-pyridin-1-yl]-butyl}-pyridine], for which the Ki was 1.75 nM.

`COc1ccc(C2=CCN(CCCCc3ccncc3)CC2)cc1` [4-{4-[4-(4-Methoxy-phenyl)-3,6-dihydro-2H-pyridin-1-yl]-butyl}-pyridine]: the inhibitory constant (Ki) is 0.45 nM.
